The values below come from patent US12336981B2, “Compounds and compositions for the inhibition of NAMPT” (Valo Health, Inc., priority 2010, dated 2025).

Like-named read-outs stand apart in the source and are kept apart here.

The target of one test is T1, NAMPT (Homo sapiens, UniProt P43490).
T1 construct: His tag; host or cells: E. coli
In words: Biochemical inhibition assay: NAMPT enzymatic reaction, NMN quantified by mass spectrometry. A digest of the protocol: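 Inhibition of E. coli-expressed His-tagged human NAMPT, measured as NMN formation by mass spectrometry after a 30 min room-temperature reaction containing 1 μM NAM, 100 μM PRPP and 2.5 mM ATP.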

The subject of a further test is A2780 cells. Put plainly: In-vitro cell proliferation assay (SRB), A2780 cells. The format is cell-based. Particulars: Homo sapiens, A2780, 72 h. A digest of the protocol: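 Growth inhibition was derived from background-corrected SRB absorbance (570 nm), measured on cells fixed in 6% TCA after three days of compound treatment under 5% CO2 at 37° C.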
Where [1] appears, read: NAMPT enzymatic assay, read-out: Biochem IC50.
[2] abbreviates: A2780 cells, 72 hours, SRB, read-out: A2780 IC50.
Setting [3] is: NAMPT enzymatic reaction, read-out: Biochem IC50.
Setting [4] is: A2780 cells, 72 hours, SRB assay, read-out: A2780 IC50.

T1 sequence (P43490 whole entry): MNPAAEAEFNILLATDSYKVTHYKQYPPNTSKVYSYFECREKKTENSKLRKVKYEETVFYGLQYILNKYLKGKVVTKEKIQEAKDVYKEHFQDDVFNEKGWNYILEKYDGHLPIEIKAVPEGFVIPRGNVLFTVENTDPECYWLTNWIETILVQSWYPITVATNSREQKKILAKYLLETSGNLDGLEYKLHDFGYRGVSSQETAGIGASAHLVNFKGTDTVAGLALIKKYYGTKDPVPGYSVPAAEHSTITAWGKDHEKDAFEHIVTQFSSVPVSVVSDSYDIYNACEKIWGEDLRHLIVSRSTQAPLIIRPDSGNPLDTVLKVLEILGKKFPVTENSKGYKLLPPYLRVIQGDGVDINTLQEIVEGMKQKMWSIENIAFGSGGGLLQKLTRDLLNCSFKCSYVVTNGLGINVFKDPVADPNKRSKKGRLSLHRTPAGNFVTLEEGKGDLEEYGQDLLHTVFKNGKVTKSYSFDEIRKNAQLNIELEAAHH

With `O=C(NCc1ccc(S(=O)(=O)c2ccc3c(c2)OCCO3)cc1)c1cnc2nccn2c1` [N-{[4-(2,3-dihydro-1,4-benzodioxine-6-sulfonyl)phenyl]methyl}imidazo[1,2-a]pyrimidine-6-carboxamide], the values for the IC50 on NAMPT (setting [1]) and with A2780 cells (setting [2]) were 0.0002 µM and 0.0005 µM, respectively.

As for `Cc1csc(S(=O)(=O)c2ccc(CNC(=O)c3ccc4nccn4c3)cc2)c1` [N-{[4-(4-methylthiophene-2-sulfonyl)phenyl]methyl}imidazo[1,2-a]pyridine-6-carboxamide], the IC50 at NAMPT (setting [1]) was 0.0124 µM; with A2780 cells (setting [2]), 0.0125 µM.

As to `O=C(NCc1ccc(S(=O)(=O)c2cccc(Cl)c2F)cc1)c1cnc2nccn2c1`, the half-inhibitory concentration (IC50) came out at 0.0024 µM at NAMPT (setting [3]) and 0.0176 µM in the test on A2780 cells (setting [2]).

Take `Cc1ccc(Cl)c(S(=O)(=O)c2ccc(CNC(=O)c3cc4ccncc4s3)cc2)c1`: the half-maximal inhibitory concentration (IC50) on NAMPT (setting [3]) was determined as 0.0022 µM; in the test on A2780 cells (setting [2]), 0.0049 µM.

Take `O=C(NCc1ccc(S(=O)(=O)c2cccc(N3CCOCC3)c2)cc1)c1ccc2ncsc2c1` [N-[(4-{[3-(morpholin-4-yl)benzene]sulfonyl}phenyl)methyl]-1,3-benzothiazole-6-carboxamide]: the IC50 at NAMPT (setting [1]) was 0.0401 µM; in the test on A2780 cells (setting [2]), 1 to 10 µM.

Consider `COc1ccc(NS(=O)(=O)c2ccc(CNC(=O)c3cc4cnccc4[nH]3)cc2)c(OC)c1` [N-({4-[(2,4-dimethoxyphenyl)sulfamoyl]phenyl}methyl)-1H-pyrrolo[3,2-c]pyridine-2-carboxamide], for which the results for the IC50 at NAMPT (setting [1]) and in the test on A2780 cells (setting [2]) were 0.0058 µM and 0.0069 µM, respectively.

As to `CCCCOc1ccc(S(=O)(=O)c2ccc(CNC(=O)c3cc4ccncc4s3)cc2)c(C)c1`, the IC50 on NAMPT (setting [3]) is 0.0033 µM; with A2780 cells (setting [2]) it was 0.1 to 1 µM.

Take `CCCCOc1ccc(S(=O)(=O)c2ccc(CNC(=O)c3cc4cnccc4[nH]3)cc2)cc1` [N-({4-[(4-butoxybenzene)sulfonyl]phenyl}methyl)-1H-pyrrolo[3,2-c]pyridine-2-carboxamide]: the IC50 on NAMPT (setting [3]) was found to be 0.0084 µM; in the test on A2780 cells (setting [2]), 0.0171 µM.

In the case of `O=C(NCc1ccc(S(=O)(=O)c2cccc(C(F)(F)F)n2)cc1)c1cc2ccncc2o1` [N-({4-[6-(trifluoromethyl)pyridine-2-sulfonyl]phenyl}methyl)furo[2,3-c]pyridine-2-carboxamide], the IC50 on NAMPT (setting [1]) was 0.005 µM; in the test with A2780 cells (setting [2]) it was 0.0031 µM.

On to `Cc1ccc(S(=O)(=O)c2ccc(CNC(=O)c3ccc4nccn4c3)cc2)c(Cl)c1`, for which the IC50 on NAMPT (setting [3]) amounted to 0.0011 µM; in the test with A2780 cells (setting [2]), 0.0009 µM.

In the case of `N#Cc1ccccc1S(=O)(=O)c1ccc(CNC(=O)c2cnc3[nH]ncc3c2)cc1` [N-({4-[(2-cyanobenzene)sulfonyl]phenyl}methyl)-1H-pyrazolo[3,4-b]pyridine-5-carboxamide], the IC50 at NAMPT (setting [3]) was 0.131 µM; in the test with A2780 cells (setting [2]) it was 0.1 to 1 µM.

For `O=C(NCc1ccc(S(=O)(=O)c2cccc(-c3ccc(F)c(F)c3)n2)cc1)c1cnc2[nH]ncc2c1` [N-({4-[6-(3,4-difluorophenyl)pyridine-2-sulfonyl]phenyl}methyl)-1H-pyrazolo[3,4-b]pyridine-5-carboxamide], the results for the IC50 on NAMPT (setting [1]) and in the test with A2780 cells (setting [2]) were 0.0178 µM and 0.041 µM, respectively.

For `O=C(NCc1ccc(S(=O)(=O)c2ccc(Cl)cc2C(F)(F)F)cc1)c1cnc2[nH]ncc2c1` [N-[(4-{[4-chloro-2-(trifluoromethyl)benzene]sulfonyl}phenyl)methyl]-1H-pyrazolo[3,4-b]pyridine-5-carboxamide], the IC50 on NAMPT (setting [1]) amounted to 0.147 µM; with A2780 cells (setting [2]), 0.0783 µM.

In the case of `O=C(NCc1ccc(S(=O)(=O)c2ccc(Cl)c(Cl)c2)cc1)c1cnc2nccn2c1`, the values for the IC50 at NAMPT (setting [3]) and in the test on A2780 cells (setting [2]) were 0.0015 µM and 0.0017 µM, respectively.

As for `CCOc1cccc(S(=O)(=O)c2ccc(CNC(=O)c3cc4ccncc4o3)cc2)c1` [N-({4-[(3-ethoxybenzene)sulfonyl]phenyl}methyl)furo[2,3-c]pyridine-2-carboxamide], the IC50 at NAMPT (setting [3]) is 0.0068 µM; with A2780 cells (setting [2]), 0.011 µM.

As for `O=C(NCc1ccc(S(=O)(=O)c2cccc3ccccc23)cc1)c1cc2ccncc2s1` [N-{[4-(naphthalene-1-sulfonyl)phenyl]methyl}thieno[2,3-c]pyridine-2-carboxamide], the IC50 on NAMPT (setting [3]) was 0.002 µM; with A2780 cells (setting [4]) it was 0.0005 µM.

As for `Cc1cc(C)c(S(=O)(=O)c2ccc(CNC(=O)c3cc4ccncc4o3)cc2)c(C)c1`, the IC50 on NAMPT (setting [3]) was 0.0592 µM; in the test on A2780 cells (setting [2]) it was 0.1 to 1 µM.

Turning to `O=C(NCc1ccc(S(=O)(=O)c2ccc(C(F)(F)F)c(F)c2)cc1)c1cc2ccncc2o1`, the IC50 on NAMPT (setting [1]) was found to be 0.0092 µM; in the test with A2780 cells (setting [2]) it was 0.0137 µM.

Regarding `CCCCOc1cccc(F)c1S(=O)(=O)c1ccc(CNC(=O)c2cc3ccncc3o2)cc1`, the IC50 at NAMPT (setting [3]) was found to be 0.0256 µM; with A2780 cells (setting [2]) it was 0.0698 µM.

On to `COc1ccc(S(=O)(=O)c2ccc(CNC(=O)c3cc4ccncc4o3)cc2)c(OC)n1` [N-{[4-(2,6-dimethoxypyridine-3-sulfonyl)phenyl]methyl}furo[2,3-c]pyridine-2-carboxamide], for which the IC50 on NAMPT (setting [1]) turned out to be 0.0066 µM; in the test on A2780 cells (setting [2]), 0.011 µM.

On to `COc1cccc(S(=O)(=O)c2ccc(CNC(=O)c3cnc4nccn4c3)cc2)n1` [N-{[4-(6-methoxypyridine-2-sulfonyl)phenyl]methyl}imidazo[1,2-a]pyrimidine-6-carboxamide], for which the IC50 on NAMPT (setting [1]) stood at 0.0022 µM; with A2780 cells (setting [2]), 0.0059 µM.

Turning to `COc1cccc(Cl)c1S(=O)(=O)c1ccc(CNC(=O)c2cc3cnccc3[nH]2)cc1` [N-({4-[(2-chloro-6-methoxybenzene)sulfonyl]phenyl}methyl)-1H-pyrrolo[3,2-c]pyridine-2-carboxamide], the results for the IC50 on NAMPT (setting [3]) and with A2780 cells (setting [4]) were 0.013 µM and 0.003 µM, respectively.

For `O=C(NCc1ccc(S(=O)(=O)c2cccc(OC(F)(F)F)c2)cc1)c1cnc2[nH]ncc2c1`, the half-maximal inhibitory concentration (IC50) at NAMPT (setting [1]) amounted to 0.0204 µM; in the test with A2780 cells (setting [2]) it was 0.0071 µM.

For `CCCn1cc(S(=O)(=O)c2ccc(CNC(=O)c3cnc4[nH]ncc4c3)cc2)cn1` [N-{[4-(1-propyl-1H-pyrazole-4-sulfonyl)phenyl]methyl}-1H-pyrazolo[3,4-b]pyridine-5-carboxamide], the IC50 at NAMPT (setting [1]) came to 0.008 µM; in the test with A2780 cells (setting [2]), 0.007 µM.

For the compound `CCN(CC)C(=O)c1cc(Cl)cc(S(=O)(=O)c2ccc(CNC(=O)c3cnc4nccn4c3)cc2)c1`, the half-maximal inhibitory concentration (IC50) turned out to be 0.0009 µM at NAMPT (setting [1]) and 0.0012 µM in the test with A2780 cells (setting [2]).

As to `Cc1c(Cl)cccc1S(=O)(=O)c1ccc(CNC(=O)c2cc3ccncc3s2)cc1`, the IC50 at NAMPT (Biochem IC50 uM) stood at 0.0572 µM; in the test with A2780 cells (read-out: A2780 IC50 uM), 0.0071 µM.

Take `CC(C)COc1cccc(S(=O)(=O)c2ccc(CNC(=O)c3cc4cnccc4[nH]3)cc2)c1` [N-[(4-{[3-(2-methylpropoxy)benzene]sulfonyl}phenyl)methyl]-1H-pyrrolo[3,2-c]pyridine-2-carboxamide]: the IC50 at NAMPT (setting [1]) came to 0.0322 µM; in the test on A2780 cells (setting [2]), 0.0143 µM.

As to `O=C(NCc1ccc(S(=O)(=O)c2ccc(C(F)(F)F)cc2)cc1)c1cnc2[nH]ncc2c1` [N-[(4-{[4-(trifluoromethyl)benzene]sulfonyl}phenyl)methyl]-1H-pyrazolo[3,4-b]pyridine-5-carboxamide], the IC50 on NAMPT (setting [1]) is 0.0199 µM; with A2780 cells (setting [2]), 0.0194 µM.

Regarding `O=C(NCc1ccc(S(=O)(=O)c2cccc(-c3ccc(F)c(F)c3)n2)cc1)c1ccc2nccn2c1` [N-({4-[6-(3,4-difluorophenyl)pyridine-2-sulfonyl]phenyl}methyl)imidazo[1,2-a]pyridine-6-carboxamide], the values for the IC50 on NAMPT (setting [1]) and in the test with A2780 cells (setting [2]) were 0.0043 µM and 0.0057 µM, respectively.

Turning to `O=C(NCc1ccc(S(=O)(=O)c2csc(-c3cccc(F)c3)n2)cc1)c1cc2cnccc2[nH]1` [N-({4-[2-(3-fluorophenyl)-1,3-thiazole-4-sulfonyl]phenyl}methyl)-1H-pyrrolo[3,2-c]pyridine-2-carboxamide], the IC50 on NAMPT (setting [1]) worked out at 0.0192 µM; with A2780 cells (setting [2]), 0.0232 µM.

In the case of `CC(C)Oc1ccc(Cl)cc1S(=O)(=O)c1ccc(CNC(=O)c2cnc3nccn3c2)cc1` [N-[(4-{[5-chloro-2-(propan-2-yloxy)benzene]sulfonyl}phenyl)methyl]imidazo[1,2-a]pyrimidine-6-carboxamide], the IC50 is 0.0047 µM on NAMPT (setting [1]) and 0.0146 µM in the test with A2780 cells (setting [2]).

As for `Cn1cc2ccc(S(=O)(=O)c3ccc(CNC(=O)c4cnc5nccn5c4)cc3)cc2n1` [N-{[4-(2-methyl-2H-indazole-6-sulfonyl)phenyl]methyl}imidazo[1,2-a]pyrimidine-6-carboxamide], the values for the half-inhibitory concentration (IC50) on NAMPT (setting [1]) and with A2780 cells (setting [2]) were 0.0012 µM and 0.0061 µM, respectively.

`O=C(NCc1ccc(S(=O)(=O)c2ccccc2)cc1)c1ccc2ccncc2c1` [N-{[4-(benzenesulfonyl)phenyl]methyl}isoquinoline-7-carboxamide]: the IC50 was 0.219 µM on NAMPT (setting [3]) and 24 µM in the test on A2780 cells (setting [4]).

With `O=C(NCc1ccc(S(=O)(=O)c2cccc(-c3ccccc3)c2)cc1)c1ccc2nccn2c1`, the IC50 on NAMPT (setting [3]) was found to be 0.0122 µM; in the test on A2780 cells (setting [2]), 0.0068 µM.

`CCN(CC)C(=O)c1cc(F)cc(S(=O)(=O)c2ccc(CNC(=O)c3cnc4nccn4c3)cc2)c1` [N-[(4-{[3-(diethylcarbamoyl)-5-fluorobenzene]sulfonyl}phenyl)methyl]imidazo[1,2-a]pyrimidine-6-carboxamide]: the IC50 on NAMPT (setting [1]) was 0.0047 µM; in the test on A2780 cells (setting [2]) it was 0.0168 µM.

As for `O=C(NCc1ccc(S(=O)(=O)c2ccccc2Cl)cc1)c1cc2ccncc2s1`, the IC50 came out at 0.0024 µM at NAMPT (setting [3]) and 0.0066 µM in the test with A2780 cells (setting [2]).

For `O=C(NCc1ccc(S(=O)(=O)c2cccc(-c3ccccc3)c2)cc1)c1cc2cnccc2[nH]1`, the IC50 on NAMPT (setting [3]) was 0.0023 µM; in the test with A2780 cells (setting [2]) it was 0.0119 µM.

As for `O=C(NCc1ccc(S(=O)(=O)c2cc(F)cc(Cl)c2)cc1)c1cc2ccncc2s1`, the values for the IC50 on NAMPT (setting [3]) and with A2780 cells (setting [2]) were 0.0014 µM and 0.0006 µM, respectively.
